# Results: US8507538B2, “Selective heterocyclic sphingosine 1 phosphate receptor modulators” (Receptos, Inc., priority 2009, dated 2013)
# Counter-ions that a name gives are not always drawn.
# Target: S1P1/EDG1 (Homo sapiens, UniProt P21453)
# Experiment: S1P1 CRE-bla CHOK1 reporter assay (inhibition of Forskolin induced cAMP)
# Type: cell-based
# Conditions: agonist activity range, Table 2; read-out: S1P1 ACTIVITY
# Description: A mammalian expression plasmid containing S1P1/EDG1 cloned into pcDNA3.1 was purchased from Missouri S&T cDNA Resource Centre. The nucleotide and amino acid sequence of human S1P1/EDG1 are published in Hla and Maciag (J Biol Chem, 265(1990), 9308-9313). S1P1/pcDNA3.1 was transfected into the CRE-bla CHO K1 (Invitrogen) cell line, and stable single cell clones were selected using standard techniques. Expression of functional SIP1/EDG1 receptor was confirmed by cell surface FACS with a S1P1 antibody (R&D Systems, clone 218713) and S1P-mediated inhibition of Forskolin induced cAMP.
# Cells were seeded into 384-well black wall/clear bottom plates at 10^4 cells/well/19.5 μl assay media (DMEM-phenol free, 0.5% charcoal/dextran stripped serum, 2 mM glutamine, 0.1 mM NEAA, 1 mM Na-Pyruvate, 25 mM Hepes) and incubated for 18 hrs at 37° C. in 5% CO2. Dose response curves (10-point) were generated in 10 mM Hepes, 0.1% Pluronic F127, in the presence of Forskolin. Cells were treated with 0.5 μl compound in the presence of 2 μM Forskolin for 4 hrs at 37° C. The FRET-based β-lactamase fluorescent substrate (LiveBLAzer™ FRET B/G Loading Kit CC4-AM; Invitrogen) was prepared according to manufacturer's directions, and incubated with cells for 2 hrs at room temperature. Plates were read at Ex:410/Em:458 and Ex:410/Em:522, and the response ratio determined. Data was analyzed by non-linear regression to determine the EC50 for inhibition of Forskolin induced cAMP.
# S1P1/EDG1, sequence (P21453 whole entry): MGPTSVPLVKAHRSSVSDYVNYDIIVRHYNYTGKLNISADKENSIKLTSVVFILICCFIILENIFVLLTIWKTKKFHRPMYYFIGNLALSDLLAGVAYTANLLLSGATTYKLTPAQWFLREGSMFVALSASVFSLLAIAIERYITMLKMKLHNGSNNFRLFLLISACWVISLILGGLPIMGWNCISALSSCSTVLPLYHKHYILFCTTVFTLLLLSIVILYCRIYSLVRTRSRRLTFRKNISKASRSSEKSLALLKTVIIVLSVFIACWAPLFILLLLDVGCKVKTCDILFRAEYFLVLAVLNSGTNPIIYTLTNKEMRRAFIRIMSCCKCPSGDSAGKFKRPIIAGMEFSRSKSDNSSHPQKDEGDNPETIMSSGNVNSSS
row,Structure (SMILES),EC50
1,"CC(C)Oc1ccc(-c2nnc(-c3cccc4c3CCC4O)s2)cc1C#N (stereo in doubt) [Compound 2, (R)-5-(5-(1-hydroxy-2,3-dihydro-1H-inden-4-yl) -1,3,4-thiadiazol-2-yl)-2-isopropoxybenzonitrile]",0.05 to 0.5 nM
2,"CC(C)Oc1ccc(-c2nnc(-c3cccc4c3CCC4N)s2)cc1C#N (stereo in doubt) [Compound 5, (R)-5-(5-(1-amino-2,3-dihydro-1H-inden-4-yl)-1,3,4-thiadiazol-2-yl) -2 isopropoxybenzonitrile hydrochloride]",0.5 to 5 nM
3,"CC(C)Oc1ccc(-c2nnc(-c3cccc4c3CCC4NCCO)s2)cc1C#N (stereo in doubt) [Compound 17, (R)-5-(5-(1-((2-hydroxyethyl)amino)-2,3-dihydro-1H-inden-4-yl)-1,3,4-thiadiazol-2-yl)-2-isopropoxybenzonitrile]",0.05 to 0.5 nM
4,"CC(C)Oc1ccc(-c2nnc(-c3cccc4c3CCC4NCC(=O)N(C)C)s2)cc1C#N (stereo in doubt) [Compound 22, (R)-2-((4-(5-(3-cyano-4-isopropoxyphenyl)-1,3,4-thiadiazol-2-yl)-2,3-dihydro-1H-inden-1-yl)amino)-N,N-dimethylacetamide hydrochloride]",0.05 to 0.5 nM
5,"CC(C)Oc1ccc(-c2nnc(-c3cccc4c3CCC4NCC(=O)O)s2)cc1C#N (stereo in doubt) [Compound 27, (R)-2-((4-(5-(3-cyano-4-isopropoxyphenyl)-1,3,4-thiadiazol-2-yl)-2,3-dihydro-1H-inden-1-yl)amino)acetic acid]",0.05 to 0.5 nM
6,"CC(C)Oc1ccc(-c2nnc(-c3cccc4c3CCC4NCc3ncc[nH]3)s2)cc1C#N (stereo in doubt) [Compound 29, (R)-5-(5-(1-(((1H-imidazol-2-yl)methyl)amino)-2,3-dihydro-1H-inden-4-yl)-1,3,4-thiadiazol-2-yl) -2-isopropoxybenzonitrile]",0.05 to 0.5 nM
7,"CC(C)Oc1ccc(-c2nnc(-c3cccc4c3CCC4NCCS(C)(=O)=O)s2)cc1C#N (stereo in doubt) [Compound 32, (R)-2-isopropoxy-5-(5-(1-((2-(methylsulfonyl)ethyl)amino)-2,3-dihydro-1H-inden-4-yl)-1,3,4-thiadiazol-2-yl)benzonitrile]",< 0.05 nM
8,"CC(C)Oc1ccc(-c2nnc(-c3cccc4c3CCC4NS(C)(=O)=O)s2)cc1C#N (stereo in doubt) [Compound 34, (R)-N-(4-(5-(3-cyano-4-isopropoxyphenyl)-1,3,4-thiadiazol-2-yl)-2,3-dihydro-1H-inden-1-yl)methanesulfonamide]",0.05 to 0.5 nM
9,"CC(C)Oc1ccc(-c2nnc(-c3cccc4c3CC[C@@H]4NS(=O)(=O)CCN3CCC(O)C3)s2)cc1C#N (stereo in doubt) [Compound 37, N-((S)-4-(5-(3-cyano-4-isopropoxyphenyl)-1,3,4-thiadiazol-2-yl)-2,3-dihydro-1H-inden-1-yl)-2-((R)-3-hydroxypyrrolidin-1-yl)ethanesulfonamide]",0.5 to 5 nM
10,"CC(C)Oc1ccc(-c2nnc(-c3cccc4c3CC[C@H]4NS(=O)(=O)CCN3CC[C@@H](O)C3)s2)cc1C#N (stereo in doubt) [Compound 38, N-((R)-4-(5-(3-cyano-4-isopropoxyphenyl)-1,3,4-thiadiazol-2-yl)-2,3-dihydro-1H -inden-1-yl)-2-((R)-3-hydroxypyrrolidin-1-yl)ethanesulfonamide]",0.5 to 5 nM
11,"CC(C)Oc1ccc(-c2nnc(-c3cccc4c3CCC4NS(=O)(=O)CC(=O)O)s2)cc1C#N (stereo in doubt) [Compound 41, (R)-2-(N-(4-(5-(3-cyano-4-isopropoxyphenyl)-1,3,4-thiadiazol-2-yl)-2,3-dihydro-1H-inden-1-yl)sulfamoyl)acetic acid]",< 0.05 nM
12,"CC(C)Oc1ccc(-c2nnc(-c3cccc4c3CCC4NS(N)(=O)=O)s2)cc1C#N (stereo in doubt) [Compound 48, (R)-N-(4-(5-(3-cyano-4-isopropoxyphenyl)-1,3,4-thiadiazol-2-yl)-2,3-dihydro-1H-inden-1-yl)sulfamide]",< 0.05 nM
13,"CC(C)Oc1ccc(-c2nnc(-c3cccc4c3CCC4NC(=O)N3CC[C@H](N(C)C)C3)s2)cc1C#N (stereo in doubt) [Compound 57, (S)-N-((R)-4-(5-(3-cyano-4-isopropoxyphenyl)-1,3,4-thiadiazol-2-yl)-2,3-dihydro-1H-inden-1-yl)-3-(dimethylamino)pyrrolidine-1-carboxamide]",0.5 to 5 nM
14,"CC(C)Oc1ccc(-c2ncc(-c3cccc4c3CCC4O)s2)cc1C#N (stereo in doubt) [Compound 69, (R)-5-(5-(1-hydroxy-2,3-dihydro-1H-inden-4-yl)thiazol-2-yl)-2-isopropoxy benzonitrile]",0.05 to 0.5 nM
15,"CC(C)Oc1ccc(-c2ncc(-c3cccc4c3CCC4NCCO)s2)cc1C#N (stereo in doubt) [Compound 91, (R)-5-(5-(1-((2-hydroxyethyl)amino)-2,3-dihydro-1H-inden-4-yl)thiazol-2-yl) -2-isopropoxybenzonitrile]",0.5 to 5 nM
16,"CC(C)Oc1ccc(-c2ncc(-c3cccc4c3CCC4NCC(=O)O)s2)cc1C#N (stereo in doubt) [Compound 96, (R)-2-((4-(2-(3-cyano-4-isopropoxyphenyl)thiazol-5-yl)-2,3-dihydro-1H-inden-1-yl)amino)acetic acid]",0.05 to 0.5 nM
17,"CC(C)Oc1ccc(-c2ncc(-c3cccc4c3CCC4NCC(=O)N3CC[C@H](O)C3)s2)cc1C#N (stereo in doubt) [Compound 102, 5-(5-((R)-1-((2-((S)-3-hydroxypyrrolidin-1-yl)-2-oxoethyl)amino)-2,3-dihydro-1H-inden-4-yl)thiazol-2-yl)-2-isopropoxybenzonitrile hydrochloride]",0.05 to 0.5 nM
18,"CC(C)Oc1ccc(-c2ncc(-c3cccc4c3CCC4NCc3ncc[nH]3)s2)cc1C#N (stereo in doubt) [Compound 109, (R)-5-(5-(1-(((1H-imidazol-2-yl)methyl)amino)-2,3-dihydro-1H-inden-4-yl)thiazol-2-yl)-2-isopropoxybenzonitrile]",0.5 to 5 nM
19,"CC(C)Oc1ccc(-c2ncc(-c3cccc4c3CCC4NS(C)(=O)=O)s2)cc1C#N (stereo in doubt) [Compound 111, (R)-N-(4-(2-(3-cyano-4-isopropoxyphenyl)thiazol-5-yl)-2,3-dihydro-1H-inden-1-yl)methanesulfonamide]",0.05 to 0.5 nM
20,"CC(C)Oc1ccc(-c2ncc(-c3cccc4c3CC[C@@H]4NS(=O)(=O)CCN3CCCC(O)C3)s2)cc1C#N (stereo in doubt) [Compound 141, N-((S)-4-(2-(3-cyano-4-isopropoxyphenyl)thiazol-5-yl)-2,3-dihydro-1H-inden-1-yl)-2-((R)-3-hydroxypiperidin-1-yl)ethanesulfonamide]",0.5 to 5 nM
21,"CC(C)Oc1ccc(-c2ncc(-c3cccc4c3CC[C@H]4NS(=O)(=O)CCN3CCC[C@@H](O)C3)s2)cc1C#N (stereo in doubt) [Compound 143, N-((R)-4-(2-(3-cyano-4-isopropoxyphenyl)thiazol-5-yl)-2,3-dihydro-1H-inden-1-yl)-2-((R)-3-hydroxypiperidin-1-yl)ethanesulfonamide]",0.5 to 5 nM
22,"COC(=O)CS(=O)(=O)NC1CCc2c(-c3cnc(-c4ccc(OC(C)C)c(C#N)c4)s3)cccc21 (stereo in doubt) [Compound 154, (R)-methyl 2-(N-(4-(2-(3-cyano-4-isopropoxyphenyl)thiazol-5-yl)-2,3-dihydro-1H-inden-1-yl)sulfamoyl)acetate]",0.05 to 0.5 nM
23,"CC(C)Oc1ccc(-c2ncc(-c3cccc4c3CCC4NS(=O)(=O)CC(=O)O)s2)cc1C#N (stereo in doubt) [Compound 158, (R)-2-(N-(4-(2-(3-cyano-4-isopropoxyphenyl)thiazol-5-yl)-2,3-dihydro-1H-inden-1-yl)sulfamoyl)acetic acid]",< 0.05 nM
24,"CC(C)Oc1ccc(-c2ncc(-c3cccc4c3CCC4NS(=O)(=O)CC(=O)N3CCOCC3)s2)cc1C#N (stereo in doubt) [Compound 162, (R)—N-(4-(2-(3-cyano-4-isopropoxyphenyl)thiazol-5-yl)-2,3-dihydro-1H-inden-1-yl)-2-morpholino-2-oxoethanesulfonamide]",0.05 to 0.5 nM
25,"CC(C)Oc1ccc(-c2ncc(-c3cccc4c3CCC4NS(=O)(=O)CCO)s2)cc1C#N (stereo in doubt) [Compound 164, (R)-N-(4-(2-(3-cyano-4-isopropoxyphenyl)thiazol-5-yl)-2,3-dihydro-1H-inden-1-yl)-2-hydroxyethanesulfonamide]",0.05 to 0.5 nM
26,"CC(C)Oc1ccc(-c2ncc(-c3cccc4c3CCC4NCCS(C)(=O)=O)s2)cc1C#N (stereo in doubt) [Compound 220, (R)-2-isopropoxy-5-(5-(1-((2-(methylsulfonyl)ethyl)amino)-2,3-dihydro-1H-inden-4-yl)thiazol-2-yl)benzonitrile]",0.05 to 0.5 nM
27,"CC(C)Oc1ccc(-c2nnc(-c3cccc4c3CC[C@@H]4O)s2)cc1C#N [Compound 1, (S)-5-(5-(1-hydroxy-2,3-dihydro-1H-inden-4-yl)-1,3,4-thiadiazol-2-yl)-2-isopropoxybenzonitrile]",0.05 to 0.5 nM
28,CCOc1ccc(-c2nnc(-c3cccc4c3CCC4O)s2)cc1OCC (stereo not shown) [Compound 3],0.5 to 5 nM
